These results are taken from patent US9368421B2, “Under-fill material and method for producing semiconductor device” (NITTO DENKO CORPORATION, priority 2011, dated 2016).

A word on the pKa: it is the negative logarithm of the acid dissociation constant. High values mean a group that holds its proton tightly, low ones a group that gives up its proton readily.

One data set can be described thus: Acid dissociation constant pKa of flux agent. The note with it: dilute aqueous solution.
Method: The pKa can be determined by measuring an acid dissociation constant Ka=[H3O][B^−]/[BH] under the condition of a dilute aqueous solution of the carboxyl group-containing compound and using the equation of pKa=−log Ka. Here, BH represents a carboxyl group-containing compound, and B^− represents a conjugate base of the carboxyl group-containing compound. The pKa can be measured in such a manner that a hydrogen ion concentration is measured using a pH meter, and the pKa is calculated from the concentration of a relevant substance and the hydrogen ion concentration.
For `O=C(O)CCCCCCCCCCC(=O)O` [Dodecanedioic acid, dodecanedioic acid], the pKa is 5. The same measure, in the same setting: under `O=C(O)C1CCCCC1C(=O)O` (stereo not shown) stands 4.4; under `CN(C)c1ccc(C(=O)O)cc1` [p-dimethylaminobenzoic acid], 4.9. Same read-out and setting: under `O=C(O)c1ccccc1[N+](=O)[O-]` [2-nitrobenzoic acid] stands 2.5.

Turning to `O=C(O)c1ccccc1-c1ccccc1` [2-phenylbenzoic acid], the pKa was 3.5. Same read-out and setting: under `O=C(O)CCCCCCC(=O)O` [Octanedioic acid, octanedioic acid] stands 4.5. The same measure, in the same setting: under `O=C(O)c1c(O)cccc1O` [2,6-dihydroxybenzoic acid] stands 1.2.

The data set is the same for the next values; noted with them: first dissociation constant of a dicarboxylic acid.
Take `O=C(O)CCCCCCCCCCC(=O)O` [Dodecanedioic acid, dodecanedioic acid]: the pKa1 amounted to 5.0. The same measure, in the same setting: under `O=C(O)C1CCCCC1C(=O)O` (stereo not shown) stands 4.4; under `O=C(O)CCCCCCC(=O)O` [Octanedioic acid, octanedioic acid], 4.5.
